{
  "source": "patent US10182994B2",
  "about": "“Nanoparticulate complex of nicotine and cerium oxide and use thereof” (priority 2014, dated 2019)",
  "test_system": "neurons that have low expression of ATG7",
  "settings": "pretreatment of neurons with lentiviral shRNA knock-down of ATG7; neurotoxin MPP+",
  "from_the_text": "A lentiviral shRNA was used to knock-down the expression of ATG7, a component of the autophagy system.",
  "data": [
    {"smiles": "CN1CCCC1c1cccnc1", "note": "(stereo not shown) [nicotine]", "values": [
      {"measurement": "prevention of MPP+ induced cellular damage", "result": "prevent MPP+ induced cellular damage"}
    ]}
  ]
}
